Structures can show the parent of a compound that is named as a salt. Where two headings read alike, the source gives them in different places. Values belong to the compound of their own block, whether it stands above or below them.
Columns and labels:
SMN2 mRNA = test: RT-qPCR splicing assay, SMN2 canonical junction (CJ) mRNA; type: cell-based, human; conditions: Homo sapiens; Table 5 panel; canonical junction qPCR; compound concentration having 50% response in CJ decrease; read-out: SMN2 IC50 (decrease in CJ mRNA levels)
Summary of the method: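 Canonical-junction transcript levels in compound-treated A673 or K562 cells (24 h, up to 10 uM final) were determined from lysates by RT-qPCR with housekeeping-gene normalization.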

HTT mRNA = test: RT-qPCR splicing assay, HTT canonical junction (CJ) and alternative junction (AJ) mRNA; type: cell-based, human; conditions: Homo sapiens; for AC50: increase in HTT alternative junction (AJ) mRNA, read-out: HTT AJ AC50
Summary of the method: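 A673 or K562 cells were treated for 24 h at 37 °C with an 11-point 3-fold compound dilution series (top final concentration 10 uM, DMSO ≤0.25%). After lysis, one-step TaqMan RT-qPCR quantified junction transcripts, normalized to PPIA for A673 or to GAPDH/GUSB for K562.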

[1] = test system: K562 (human chronic myelogenous leukemia) cells; test: Cell Titer Glo 2.0 cell viability assay; type: cell-based; conditions: Homo sapiens, K562, 72 h, K562 cells, 72 hours, Cell Titer Glo 2.0; read-out: K562 GI50
[2] = decrease in HTT canonical junction (CJ) mRNA, RT-qPCR, read-out: HTT CJ IC50
[3] = Table 5 panel, canonical junction qPCR, compound concentration having 50% response in CJ decrease, read-out: HTT IC50 (decrease in CJ mRNA levels)

IC50 (SMN2 mRNA): 0.1 to 1 µM
IC50 (HTT mRNA; [2]): 1 to 10 µM
IC50 (HTT mRNA; [3]): > 10 µM
GI50 [1]: 1 to 10 µM
Structure (SMILES): Cc1cn2nc(-c3ccc4c(=O)n(C5CCNCC5)ccc4c3)cc(C(N)=O)c2n1 [Compound 523, 2-methyl-6-[1-oxo-2-(4-piperidyl)-6-isoquinolyl]imidazo[1,2-b]pyridazine-8-carboxamide]
AC50 (HTT mRNA; RT-qPCR): > 10 µM

IC50 (SMN2 mRNA): 0.1 to 1 µM
IC50 (HTT mRNA; [2]): > 10 µM
IC50 (HTT mRNA; [3]): > 10 µM
GI50 [1]: > 10 µM
Structure (SMILES): Cc1cn2cc(-c3cc(F)c4c(=O)n([C@@H]5CNC[C@@H]5C)ccc4c3)cc(F)c2n1 [Compound 653, 8-fluoro-6-(8-fluoro-2-methyl-imidazo[1,2-a]pyridin-6-yl)-2-[(3S,4S)-4-methylpyrrolidin-3-yl]isoquinolin-1-one]
AC50 (HTT mRNA; RT-qPCR): > 10 µM

IC50 (SMN2 mRNA): < 0.1 µM
IC50 (HTT mRNA; [2]): < 0.1 µM
IC50 (HTT mRNA; [3]): < 0.1 µM
GI50 [1]: < 0.1 µM
Structure (SMILES): Cc1cn2nc(-c3ccc4c(=O)n(C5CCNCC5)ccc4c3)cc(Oc3cccc(F)c3)c2n1 [Compound 545, 6-[8-(3-fluorophenoxy)-2-methyl-imidazo[1,2-b]pyridazin-6-yl]-2-(4-piperidyl)isoquinolin-1-one; hydrochloride]
AC50 (HTT mRNA; RT-qPCR): < 0.1 µM

IC50 (SMN2 mRNA): < 0.1 µM
IC50 (HTT mRNA; [2]): 0.1 to 1 µM
IC50 (HTT mRNA; [3]): 0.1 to 1 µM
GI50 [1]: 1 to 10 µM
Structure (SMILES): COC(=O)Cc1cc(-c2ccc3c(=O)n(C4CCNCC4)ccc3c2)nn2cc(C)nc12 [Compound 527]
AC50 (HTT mRNA; RT-qPCR): 0.1 to 1 µM

IC50 (SMN2 mRNA): < 0.1 µM
IC50 (HTT mRNA; [2]): 1 to 10 µM
IC50 (HTT mRNA; [3]): 0.1 to 1 µM
GI50 [1]: 0.1 to 1 µM
Structure (SMILES): Cc1cn2cc(-c3ccc4c(=O)n(C5CCNCC5)ccc4c3)cc(C#N)c2n1 [Compound 560, 2-methyl-6-[1-oxo-2-(piperidin-4-yl)isoquinolin-6-yl]imidazo[1,2-a]pyridine-8-carbonitrile]
AC50 (HTT mRNA; RT-qPCR): 0.1 to 1 µM

The next lines start with the compound.

Structure (SMILES): Cc1cn2nc(-c3cc(F)c4c(=O)n(C5CCN(C)CC5)ncc4c3)cc(C)c2n1 [Compound 539]
IC50 (SMN2 mRNA): < 0.1 µM
IC50 (HTT mRNA; [2]): < 0.1 µM
AC50 (HTT mRNA; RT-qPCR): < 0.1 µM
IC50 (HTT mRNA; [3]): < 0.1 µM
GI50 [1]: 0.1 to 1 µM

Structure (SMILES): Cc1cn2cc(-c3cc(F)c4c(=O)n(C5CCNCC5)cnc4c3)cc(C#N)c2n1 [Compound 588]
IC50 (SMN2 mRNA): < 0.1 µM
IC50 (HTT mRNA; [2]): 1 to 10 µM
AC50 (HTT mRNA; RT-qPCR): 1 to 10 µM
IC50 (HTT mRNA; [3]): 1 to 10 µM
GI50 [1]: 1 to 10 µM

Structure (SMILES): COc1cccc(Oc2cc(-c3ccc4c(=O)n(C5CCNCC5)ccc4c3)nn3cc(C)nc23)c1 [Compound 547, 6-[8-(3-methoxyphenoxy)-2-methyl-imidazo[1,2-b]pyridazin-6-yl]-2-(4 piperidyl) isoquinolin-1-one]
IC50 (SMN2 mRNA): < 0.1 µM
IC50 (HTT mRNA; [2]): < 0.1 µM
AC50 (HTT mRNA; RT-qPCR): < 0.1 µM
IC50 (HTT mRNA; [3]): < 0.1 µM
GI50 [1]: < 0.1 µM

Structure (SMILES): Cc1cn2nc(-c3cc(O)c4c(=O)n(C5CCN(CCF)CC5)ncc4c3)cc(C)c2n1 [Compound 553]
IC50 (SMN2 mRNA): < 0.1 µM
IC50 (HTT mRNA; [2]): < 0.1 µM
AC50 (HTT mRNA; RT-qPCR): < 0.1 µM
IC50 (HTT mRNA; [3]): < 0.1 µM
GI50 [1]: 0.1 to 1 µM

Structure (SMILES): Cc1cn2nc(-c3ccc4c(=O)n(C5CCNCC5)ccc4c3)cc(CO)c2n1 [Compound 525, 6-[8-(hydroxymethyl)-2-methyl-imidazo[1,2-b]pyridazin-6-yl]-2-(4-piperidyl) isoquinolin-1-one]
IC50 (SMN2 mRNA): < 0.1 µM
IC50 (HTT mRNA; [2]): 0.1 to 1 µM
AC50 (HTT mRNA; RT-qPCR): < 0.1 µM
IC50 (HTT mRNA; [3]): < 0.1 µM
GI50 [1]: 0.1 to 1 µM

Structure (SMILES): Cc1cn2cc(-c3cc(F)c4c(=O)n(C5CC(C)NC(C)C5)ccc4c3)cc(F)c2n1 (centres unmarked) [Compound 651]
IC50 (SMN2 mRNA): < 0.1 µM
IC50 (HTT mRNA; [2]): 0.1 to 1 µM
AC50 (HTT mRNA; RT-qPCR): < 0.1 µM
IC50 (HTT mRNA; [3]): < 0.1 µM
GI50 [1]: < 0.1 µM

Structure (SMILES): CN(c1ccc2c(=O)n(-c3ccc4nn(C)cc4c3)cnc2c1)C1CCNCC1 [Compound 180]
IC50 (SMN2 mRNA): > 10 µM
IC50 (HTT mRNA; [2]): > 10 µM
AC50 (HTT mRNA; RT-qPCR): > 10 µM
IC50 (HTT mRNA; [3]): > 10 µM
GI50 [1]: > 10 µM

Structure (SMILES): Cc1cn2nc(-c3ccc4c(=O)n(C5CCN(CCF)CC5)ncc4c3)cc(C)c2n1 [Compound 515]
IC50 (SMN2 mRNA): < 0.1 µM
IC50 (HTT mRNA; [2]): 0.1 to 1 µM
AC50 (HTT mRNA; RT-qPCR): 0.1 to 1 µM
IC50 (HTT mRNA; [3]): 0.1 to 1 µM
GI50 [1]: 1 to 10 µM

— patent publication US20250332173A1, “COMPOUNDS AND METHODS FOR MODULATING NUCLEIC ACID SPLICING” (REMIX THERAPEUTICS INC., priority 2021, published 2025)
